Measured values reported in paper PMC6327040, “A novel scaffold for EGFR inhibition: Introducing N-(3-(3-phenylureido)quinoxalin-6-yl) acrylamide derivatives” (Scientific Reports, 2019).

Columns and labels:
[1] = molecular target: EGFRL858R (Homo sapiens, UniProt P00533, L858R); experiment: HTRF KinEASE-TK biochemical assay (TR-FRET), EGFR-L858R
Description: (§1) An artificial substrate peptide (TK-substrate from Cisbio) was phosphorylated by EGFR. After completion of the reaction (reaction times: 25 min for wild-type, 15 min for L858R, 20 min for T790M/L858R), the reaction was stopped by addition of a buffer containing EDTA as well as, an anti-phosphotyrosine antibody labeled with europium cryptate and streptavidin labeled with the fluorophore XL665. FRET between europium cryptate and XL665 was measured after an additional hour of incubation to quantify the phosphorylation of the substrate peptide. […] Kinase and inhibitor were preincubated for 30 min (EGFR-wt) and 1 h (EGFR-L858R and EGFR-L858R/T790M) before the reaction was started by addition of ATP and substrate peptide. An EnVision multimode plate reader (Perkin Elmer) was used to measure the fluorescence of the samples at 620 nm (Eu-labeled antibody) and 665 nm (XL665 labeled streptavidin) 50 μs after excitation at 320 nm. The quotient of both intensities for reactions made with eight different inhibitor concentrations was then analyzed using the Quattro Software Suite for IC50-determination. Each reaction was performed in duplicate, and at least three independent determinations of each IC50 were made.

[2] = molecular target: EGFRwt (Homo sapiens, UniProt P00533); experiment: HTRF KinEASE-TK biochemical assay (TR-FRET), EGFRwt
Description: as §1

[3] = molecular target: EGFRL858R/T790M (Homo sapiens, UniProt P00533, L858R/T790M); experiment: HTRF KinEASE-TK biochemical assay (TR-FRET), EGFR-L858R/T790M
Description: as §1

[4] = tested on: patient-derived tumor cell panel; experiment: Patient-derived tumor cell panel screening (Oncotest); assay type: cell-based; conditions: single screening concentration of 10 μM
Description: Based on this premise, the inhibitory activity of compounds 7a-m towards a patient-derived tumor cell panel[49] was evaluated, using a single screening concentration of 10 μM. […] In fact, it is worth mentioning that, although the data observed in a cellular assay have no direct correlation to EGFR enzymatic tests, this phenomenon is not unusual and is related to the nature of the assays itself. In enzymatic assays there is no influence of membrane permeability issues, while in cell viability assays compounds must penetrate the cell membrane and resist the cellular environment for long enough for the ligand-receptor interaction to occur and to trigger the biological activity.

[5] = enzymatic in vitro determination

EGFRwt, sequence (P00533 25-1210): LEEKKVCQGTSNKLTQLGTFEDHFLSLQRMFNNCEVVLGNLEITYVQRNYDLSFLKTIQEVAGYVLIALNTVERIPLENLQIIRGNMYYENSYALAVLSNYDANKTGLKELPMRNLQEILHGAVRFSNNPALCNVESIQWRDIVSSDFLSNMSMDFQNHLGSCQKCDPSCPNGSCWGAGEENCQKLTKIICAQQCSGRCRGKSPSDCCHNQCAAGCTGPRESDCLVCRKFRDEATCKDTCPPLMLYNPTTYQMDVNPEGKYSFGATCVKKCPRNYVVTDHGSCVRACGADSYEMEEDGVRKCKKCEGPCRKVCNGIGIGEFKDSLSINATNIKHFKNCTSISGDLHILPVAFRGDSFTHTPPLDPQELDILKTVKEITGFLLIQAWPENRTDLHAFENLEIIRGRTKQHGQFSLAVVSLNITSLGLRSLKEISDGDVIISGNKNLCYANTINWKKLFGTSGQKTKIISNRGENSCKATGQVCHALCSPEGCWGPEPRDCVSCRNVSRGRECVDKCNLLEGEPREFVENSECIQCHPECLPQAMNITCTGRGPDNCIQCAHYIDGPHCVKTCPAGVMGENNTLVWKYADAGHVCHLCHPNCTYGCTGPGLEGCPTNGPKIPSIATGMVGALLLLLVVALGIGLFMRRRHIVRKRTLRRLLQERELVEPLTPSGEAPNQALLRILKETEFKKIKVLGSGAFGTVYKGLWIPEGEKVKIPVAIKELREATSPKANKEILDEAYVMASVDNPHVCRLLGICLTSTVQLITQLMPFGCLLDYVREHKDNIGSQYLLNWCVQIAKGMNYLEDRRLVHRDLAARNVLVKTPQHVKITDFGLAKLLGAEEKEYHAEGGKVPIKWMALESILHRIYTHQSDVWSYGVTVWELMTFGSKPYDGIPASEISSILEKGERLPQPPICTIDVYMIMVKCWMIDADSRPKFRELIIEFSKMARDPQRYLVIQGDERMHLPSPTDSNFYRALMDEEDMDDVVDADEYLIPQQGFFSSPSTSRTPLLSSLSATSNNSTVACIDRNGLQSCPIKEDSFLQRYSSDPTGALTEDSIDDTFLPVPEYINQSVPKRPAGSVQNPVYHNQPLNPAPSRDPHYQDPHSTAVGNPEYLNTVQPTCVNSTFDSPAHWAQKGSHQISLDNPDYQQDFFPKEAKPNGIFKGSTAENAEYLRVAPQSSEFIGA
EGFRL858R/T790M, sequence (P00533 25-1210 T790M/L858R): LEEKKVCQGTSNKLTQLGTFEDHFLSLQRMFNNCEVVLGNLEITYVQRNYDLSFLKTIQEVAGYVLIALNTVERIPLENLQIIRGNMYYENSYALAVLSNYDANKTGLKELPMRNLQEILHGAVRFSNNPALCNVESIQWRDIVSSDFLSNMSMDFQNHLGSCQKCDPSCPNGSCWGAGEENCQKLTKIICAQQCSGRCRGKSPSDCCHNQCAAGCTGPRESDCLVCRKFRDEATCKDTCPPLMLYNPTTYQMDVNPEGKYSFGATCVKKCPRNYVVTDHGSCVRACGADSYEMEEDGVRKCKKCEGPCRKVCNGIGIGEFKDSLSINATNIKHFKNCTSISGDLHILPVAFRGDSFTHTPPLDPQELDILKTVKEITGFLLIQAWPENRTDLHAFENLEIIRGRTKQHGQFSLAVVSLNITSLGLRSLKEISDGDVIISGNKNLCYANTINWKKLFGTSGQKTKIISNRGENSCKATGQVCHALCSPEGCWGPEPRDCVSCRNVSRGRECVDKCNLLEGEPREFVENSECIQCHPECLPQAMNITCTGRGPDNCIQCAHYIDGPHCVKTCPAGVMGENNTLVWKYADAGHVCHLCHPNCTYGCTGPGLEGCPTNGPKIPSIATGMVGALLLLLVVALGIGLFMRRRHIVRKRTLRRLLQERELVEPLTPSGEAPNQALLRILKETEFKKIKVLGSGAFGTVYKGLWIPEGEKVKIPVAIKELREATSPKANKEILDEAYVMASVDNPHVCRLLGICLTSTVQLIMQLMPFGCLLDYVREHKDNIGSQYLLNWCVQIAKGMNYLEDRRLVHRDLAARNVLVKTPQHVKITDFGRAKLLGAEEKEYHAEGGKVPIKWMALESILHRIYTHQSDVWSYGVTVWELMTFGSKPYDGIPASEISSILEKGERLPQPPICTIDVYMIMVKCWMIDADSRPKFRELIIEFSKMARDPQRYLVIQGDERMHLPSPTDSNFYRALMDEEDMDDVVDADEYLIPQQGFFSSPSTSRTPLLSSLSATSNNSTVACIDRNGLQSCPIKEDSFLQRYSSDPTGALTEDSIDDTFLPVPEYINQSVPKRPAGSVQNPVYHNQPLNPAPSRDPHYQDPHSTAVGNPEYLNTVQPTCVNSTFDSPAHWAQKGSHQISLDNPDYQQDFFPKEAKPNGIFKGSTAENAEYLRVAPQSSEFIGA
EGFRL858R, sequence (P00533 25-1210 L858R): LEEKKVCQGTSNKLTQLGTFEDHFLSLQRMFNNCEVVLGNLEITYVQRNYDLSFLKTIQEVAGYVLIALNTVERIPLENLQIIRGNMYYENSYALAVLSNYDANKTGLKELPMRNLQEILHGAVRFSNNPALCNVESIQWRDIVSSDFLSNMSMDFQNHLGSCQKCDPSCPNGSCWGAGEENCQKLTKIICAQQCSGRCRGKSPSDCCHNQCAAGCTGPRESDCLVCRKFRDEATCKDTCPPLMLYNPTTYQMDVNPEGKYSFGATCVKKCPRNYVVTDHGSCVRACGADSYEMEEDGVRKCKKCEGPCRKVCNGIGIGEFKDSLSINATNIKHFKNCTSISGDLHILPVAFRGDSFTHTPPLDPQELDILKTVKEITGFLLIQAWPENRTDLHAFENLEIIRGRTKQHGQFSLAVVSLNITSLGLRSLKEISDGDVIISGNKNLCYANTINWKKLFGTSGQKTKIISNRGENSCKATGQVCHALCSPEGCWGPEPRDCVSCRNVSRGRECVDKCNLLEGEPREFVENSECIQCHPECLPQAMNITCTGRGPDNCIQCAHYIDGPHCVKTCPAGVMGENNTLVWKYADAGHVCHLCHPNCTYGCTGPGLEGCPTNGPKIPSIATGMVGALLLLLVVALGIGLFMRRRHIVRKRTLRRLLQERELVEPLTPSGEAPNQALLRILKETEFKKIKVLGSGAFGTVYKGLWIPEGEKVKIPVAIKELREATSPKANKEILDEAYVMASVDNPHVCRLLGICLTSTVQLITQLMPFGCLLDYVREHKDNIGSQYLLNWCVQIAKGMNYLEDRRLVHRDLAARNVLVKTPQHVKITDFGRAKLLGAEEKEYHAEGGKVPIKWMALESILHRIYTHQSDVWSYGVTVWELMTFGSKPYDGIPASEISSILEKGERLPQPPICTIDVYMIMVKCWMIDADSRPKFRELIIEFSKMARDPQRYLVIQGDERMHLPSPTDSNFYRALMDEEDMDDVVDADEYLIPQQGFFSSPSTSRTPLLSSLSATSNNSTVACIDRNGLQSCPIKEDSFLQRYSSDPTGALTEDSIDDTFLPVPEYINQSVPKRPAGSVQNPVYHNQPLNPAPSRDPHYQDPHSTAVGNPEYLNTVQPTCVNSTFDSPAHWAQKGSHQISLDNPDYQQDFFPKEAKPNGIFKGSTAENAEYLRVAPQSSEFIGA

SMILES | melting point | IC50 [1] | inhibitory activity on EGFRL858R (in words) [1, 5] | IC50 [2] | inhibitory activity on EGFRwt (in words) [2, 5] | IC50 [3] | inhibitory activity on EGFRL858R/T790M (in words) [3, 5] | tumor cell lines' growth inhibition / cytotoxic activity (in words) [4]
O=C(CCl)Nc1ccc2ncc(NC(=O)Nc3cccc(C(F)(F)F)c3)nc2c1 [Compound 7g, 2-chloro-N-(3-(3-(3-(trifluoromethyl)phenyl)ureido)quinoxalin-6-yl)acetamide] | 260 to 263 °C | 2100 ± 505 nM | weak activity | 179 ± 61 nM | weak activity | 9830 ± 297 nM | no inhibitory activity | 
N#CCC(=O)Nc1ccc2ncc(NC(=O)Nc3ccc(Cl)c(C(F)(F)F)c3)nc2c1 [Compound 7d, N-(3-(3-(4-chloro-3-(trifluoromethyl)phenyl)ureido)quinoxalin-6-yl)-2-cyanoacetamide] | 243 to 246 °C | > 10000 nM |  | > 10000 nM |  | 9870 ± 265 nM |  | 
C=CC(=O)Nc1ccc2ncc(NC(=O)Nc3ccc(Cl)c(C(F)(F)F)c3)nc2c1 [Compound 7a, N-(3-(3-(4-chloro-3-(trifluoromethyl)phenyl)ureido)quinoxalin-6-yl) acrylamide] | 272 to 274 °C | > 10000 nM |  | > 10000 nM |  | > 10000 nM |  | 
O=C(CCl)Nc1ccc2ncc(NC(=O)Nc3ccccc3)nc2c1 [Compound 7j, 2-chloro-N-(3-(3-phenylureido)quinoxalin-6-yl)acetamide] | 249 to 252 °C | 270 ± 202 nM |  | 123 ± 134 nM |  | 823 ± 613 nM |  | 

Further lines, with some results ahead:

melting point | IC50 [1] | inhibitory activity on EGFRL858R (in words) [1, 5] | IC50 [2] | inhibitory activity on EGFRwt (in words) [2, 5] | IC50 [3] | inhibitory activity on EGFRL858R/T790M (in words) [3, 5] | SMILES | tumor cell lines' growth inhibition / cytotoxic activity (in words) [4]
 | 32 ± 14 nM |  | 101 ± 12 nM |  | 132 ± 49 nM |  | CN(C)C/C=C/C(=O)Nc1ccc2ncc(NC(=O)Nc3ccccc3)nc2c1 [Compound 7l, (E)-4-(dimethylamino)-N-(3-(3-phenylureido)quinoxalin-6-yl)but-2-enamide] | did not inhibit the Oncotest® tumor cell lines’ growth in a significant manner
238 to 241 °C | 445 ± 105 nM |  | 3120 ± 787 nM |  | 6290 ± 2790 nM |  | N#CCC(=O)Nc1ccc2ncc(NC(=O)Nc3ccccc3)nc2c1 [Compound 7k, 2-cyano-N-(3-(3-phenylureido)quinoxalin-6-yl)acetamide] | 
